One molecule from the NIST ThermoML archive (doi:10.1021/acs.jced.9b00560) can be followed below.

For series [1] the following is noted: Crystal; DSC.
Series [2] in a line: Molar enthalpy of transition or fusion. Conditions: Crystal; DSC.

Each structure is given as a SMILES string. ± gives the expanded uncertainty stated by the source.

Regarding `O=C1C=CC(=O)N1c1ccccc1Br` [1-(2-bromophenyl)-pyrrole-2,5-dione], in series [1], the Triple point temperature stood at 357.24 ± 1.2 K. In addition, in series [2], the “Molar enthalpy of transition or fusion” value was 4.57 ± 0.215 kcal/mol.
